Results on one substance are retold here after US20240011038A1, “CYTARABINE-MODIFIED miRNA FOR TREATING CANCER” (Curamir Therapeutics, Inc., priority 2022, published 2024).

Common to all, as to assay type: cell-based
One data set has as its system Wee1 gene mRNA. The data set can be described thus: Inhibition of Wee1 expression by modified miR-15a (qRT-PCR). To be noted: MV-4-11 cells, lipofection, 15 nM miRNA, 24 h post-transfection, normalized to GAPDH, vs negative control miRNA; FIG. 7. On the procedure: Wee1 is an important cell cycle regulator and a potential target for AML therapy. Wee1 is a direct target of miR-15a with two miR-15a binding sites in the 3′ UTR of Wee1.
For transfection with a vehicle, twenty-four hours before transfection, cells were plated in 6 well plates at 1×10^5 cells per well. Cells were transfected with negative control miRNA (Thermo Fisher Scientific), 5-FU miR-15a, or various versions of the ara-C modified miR-15a mimic, using Lipofectamine™ 2000 (Thermo Fisher Scientific) as directed by the manufacturer. MV-4-11 cells were transfected with 15 nM of miRNA. Twenty-four hours post-transfection, RNA was isolated from cells using TRIzol™ (Thermo Fisher Scientific) reagent following the manufacturer's protocol. Wee1 expression was measured using qRT-PCR and normalized to GAPDH expression and calculated by the double delta threshold cycle (ΔΔCt) method.
Background: Real-time PCR tracks product formation cycle by cycle.

The test system of data set [1] is REH acute lymphocytic leukemia cells. Put plainly: Cell viability of REH ALL cells exposed to modified miRNA mimics (WST-1). To be noted: vehicle-free transfection, 10, 5, 0.5 nM miRNA, day 6, FIG. 5. As for the experimental part:
(§1) MV-4-11 (American Type Culture Collection; “ATCC”) AML cells were maintained in Iscove's Modified Dulbecco's Medium (IMDM) (Thermo Fisher Scientific) supplemented with 10% fetal bovine serum (“FBS”; VWR). REH ALL cells (ATCC) were maintained in RPMI-1640 Medium (Thermo Fisher Scientific) supplemented with 10% FBS.
(§2) For transfection with a vehicle, twenty-four hours before transfection, cells were plated in 6 well plates at 1×10^5 cells per well. Cells were transfected with negative control miRNA (Thermo Fisher Scientific), 5-FU miR-15a, or various versions of the ara-C modified miR-15a mimic, using Lipofectamine™ 2000 (Thermo Fisher Scientific) as directed by the manufacturer. MV-4-11 cells were transfected with 15 nM of miRNA and REH cells were transfected with 25 nM of miRNA. Twenty-four hours post-transfection, cells were replated at 2000 cells per well in 96 well plates. […]
(§3) Cell numbers were measured on days 1, 3, and 6 post transfection for cells transfected with Lipofectamine 2000 and on day 6 post transfection for vehicle free transfection, using WST-1 dye (Roche). Briefly, cells were incubated with 10 μl of WST-1 dye per 100 μl of media for 1 hour (REH) or 2 hours (MV-4-11) at 37° C. and absorbance was read at 450 nm and 630 nm. The optical density (“OD”) was calculated by subtracting the absorbance at 630 nm from that at 450 nm. […]

Data set [2] deals with MV-4-11 acute myeloid leukemia cells. The data set can be described thus: Cell viability of MV-4-11 AML cells exposed to modified miRNA mimics (WST-1). To be noted: MV-4-11 cells, vehicle-free transfection, dosage of 5 nM, 6 days; FIG. 3. As for the experimental part:
as §1, §2, §3
In general terms: Tetrazolium assays rely on reduction of a dye to a coloured formazan, in cell work by metabolically active cells.

For “5-FU miR-15a: miR-15a mimic with 5-fluorouracil in the guide strand, unmodified passenger strand (FIG. 1F; SEQ ID NO: 1/2) (guide UAGCAGCACAUAAUGGUUUGUG; sense CAGGCCAUAUUGUGCUGCCUCA; 5-fluorouracil in guide strand; misc_feature 1..22 miR-15a guide strand; modified_base 1 OTHER; uracil or 5-fluorouracil; misc_feature 4 cytidine or cytosine arabinoside; misc_feature 7 cytidine or cytosine arabinoside; modified_base 11 OTHER; modified_base 14 OTHER; modified_base 17..19 OTHER; modified_base 21 OTHER; misc_fea; misc_feature 1..22 miR-15a passenger strand; misc_feature 1 cytidine or cytosine arabinoside; misc_feature 5..6 cytidine or cytosine arabinoside; misc_feature 15 cytidine or cytosine arabinoside;)”, the “Wee1 gene mRNA expression (relative quantity, qRT-PCR)” value with Wee1 gene mRNA was “able to significantly suppress Wee1 gene mRNA expression”. In data set [1], the “inhibition of cell viability (percent cell viability)” value is on record as “more effective than ara-C miR-15a”. Further, in data set [2], the cell killing result is listed as “killed all cells in 6 days”.
